Measured values reported in patent publication US5986136A, “Photolabeling reagent” (President and Fellows of Harvard College, priority 1998, dated 1999).
Entries after “also recorded” stand apart in the source; their conditions may differ.

How the values were obtained:
[1] = target: anti-substance P antibody; assay: Radioimmunoassay: displacement of [^125 I]BHSP from anti-substance P antibody; format: binding; settings: for IC50: antibody dilution 1/160,000, [^125 I]BHSP 3.3 pM, 4° C. overnight, mean±standard deviation of ≥3 experiments
[2] = Retention of radioiodine during photolysis (model benzophenone); format: physicochemical; settings: receptor photolabeling conditions, twice the photolysis time
SPR in P388D1 cells [3] = target: T1, SPR in P388D1 cells (Mus musculus, UniProt P30548); format: binding, murine
T1 construct: a nontransfected murine macrophage/monocyte cell line; endogenous in cells; host or cells: P388D1 (murine macrophage/monocyte cell line)
Protocol: Percentage of tracer bound was determined by solubilization and counting after washing away excess unbound tracer. […] The data shown is the average of four experiments containing triplicate samples in each. IC50 is expressed as the mean±standard deviation of ≥4 experiments.
Protease inhibitors (0.004% bacitracin, 0.0002% chymostatin, 0.0004% leupeptin) and 0.1% BSA was added to the confluent cells (approximately 1×10^6 cells/well in DMEM and 10% FBS) and incubated for 30 min at room temperature (25° C.). The cells were then washed twice (0.5 ml/well) with ice-cold buffer (DMEM+20 mM HEPES, pH 7.2) and incubated with 0.5 ml of buffer on ice for at least 10 min in the presence of protease inhibitors and 0.1% BSA. […] After incubation, the cells were washed twice with 0.5 ml/well phosphate-buffered saline (104 mM NaCl, 2.7 mM KCl, 10 mM Na2 HPO4, 1.8 mM KH2 PO4, pH 7.2), then solubilized by 0.5 ml lysis buffer (1% Nonidet P-40, 0.2% SDS, 150 mM NaCl, 50 mM Tris, pH 8.0) for 20 min and transferred for gamma counting. […] Curve fitting was performed as described above.

SPR in P388D1 cells [4] = target: T1, SPR in P388D1 cells; assay: Photoaffinity labeling of SPR in P388D1 cells; format: binding, murine; settings: presence of excess unlabeled SP or CP-96,345
Protocol: P388D1 cells (5×10^6 cells/5 ml) were inoculated on FBS-pretreated dishes (60 mm) in DMEM with 10% FBS and grown overnight. The cultured cells (approximately 1×10^7) were incubated with protease inhibitors and 0.1% BSA for 30 min at room temperature (25° C.). The cells were then washed twice (5 ml) with ice-cold buffer (DMEM+20 mM HEPES, pH 6.7) and incubated with 5 ml of buffer on ice for at least 10 min, in the presence of protease inhibitors, and 0.1% BSA. […] The dishes were then frozen by placement on crushed dry ice. The frozen sample was irradiated under nitrogen for 2 h using a focused HBO 100-watt mercury short arc lamp through an optical filter to eliminate light below 310 nm. A second filter removed infrared wavelengths (>900 nm) to minimize sample heating during photolysis (Li et al., 1995a). Alternatively, the sample can be irradiated in a commerical photoreactor at 3500 Å.
After photolysis, the sample was thawed and any remaining attached cells were scraped from the bottom of the plate. The sample was transferred to microfuge tubes and centrifuged at 16,000 g for 30 min. The pelleted cells were hypotonically lysed by resuspending in 0.3 ml of 5 mM Tris-HCl, pH 8.0, for 15 min at room temperature. Then the samples were homogenized and centrifuged at 500 g for 15 min to remove debris. […]

T1 sequence (P30548 whole entry, one chain of several): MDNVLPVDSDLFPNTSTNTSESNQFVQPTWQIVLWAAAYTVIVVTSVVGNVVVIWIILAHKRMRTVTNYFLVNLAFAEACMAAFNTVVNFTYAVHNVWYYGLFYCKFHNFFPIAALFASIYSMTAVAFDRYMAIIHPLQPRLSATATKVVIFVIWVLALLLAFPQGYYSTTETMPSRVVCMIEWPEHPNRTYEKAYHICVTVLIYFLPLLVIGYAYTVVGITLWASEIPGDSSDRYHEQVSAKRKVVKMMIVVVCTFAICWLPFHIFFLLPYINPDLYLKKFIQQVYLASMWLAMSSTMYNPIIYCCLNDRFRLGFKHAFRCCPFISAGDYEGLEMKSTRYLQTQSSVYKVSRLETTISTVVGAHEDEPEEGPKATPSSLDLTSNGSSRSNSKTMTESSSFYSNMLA

CSCC[C@H](NC(=O)[C@H](CC(C)C)NC(=O)CNC(=O)[C@H](Cc1ccccc1)NC(=O)[C@H](Cc1ccccc1)NC(=O)[C@H](CCC(N)=O)NC(=O)[C@H](CCC(N)=O)NC(=O)[C@@H]1CCCN1C(=O)[C@H](CCCCN)NC(=O)[C@@H]1CCCN1C(=O)[C@@H](N)CCCNC(=N)N)C(N)=O [SP, reference compound]
IC50 [1]: 0.071 ± 0.006 nM

O=C(c1ccccc1)c1ccc(O)c([125I])c1 [[^125 I]-3-iodo-4-hydroxybenzophenone]
radioiodine remaining incorporated in the starting material after photolysis [2]: greater than 98%

CSCC[C@H](NC(=O)[C@H](CC(C)C)NC(=O)CNC(=O)[C@H](Cc1ccc(C(=O)c2ccc(O)cc2)cc1)NC(=O)[C@H](Cc1ccccc1)NC(=O)[C@H](CCC(N)=O)NC(=O)[C@H](CCC(N)=O)NC(=O)[C@@H]1CCCN1C(=O)[C@H](CCCCN)NC(=O)[C@@H]1CCCN1C(=O)[C@@H](N)CCCNC(=N)N)C(N)=O [L-HBPA^8 -SP, ArgProLysProGlnGlnPhe(L-HBPA)GlyLeuMet-NH2]
activity with both a SP specific antibody and SPR, receptor part (in words) (SPR in P388D1 cells [3]; first HPLC peak versus second): more active than the second
affinity / specificity for SPR (in words) (SPR in P388D1 cells [3]; murine SP receptor, P388D1 cells): bind with high affinity and specificity to SPR; also recorded: a specific as well as a high affinity ligand for the receptor
IC50 [1]: 0.052 ± 0.008 nM
affinity for anti-SP antiserum (in words) ([1]; compared with native SP or other diastereomer): binds to the antibody with a higher affinity
activity with both a SP specific antibody and SPR, antibody part (in words) ([1]; first HPLC peak versus second): more active than the second

COc1ccccc1CN[C@H]1C2CCN(CC2)[C@H]1C(c1ccccc1)c1ccccc1 [CP-96,345, (2S, 3S)-cis-2-(diphenylmethyl)-N-[(2-methoxyphenyl)-methyl]-1-aza-bicyclo[2.2.2]octan-3-amine]
inhibition of photolabeling by [^125 I]HBPA^8 -SP (SPR in P388D1 cells [4]): completely inhibited

CSCC[C@H](NC(=O)[C@H](CC(C)C)NC(=O)CNC(=O)[C@@H](Cc1ccc(C(=O)c2ccc(O)cc2)cc1)NC(=O)[C@H](Cc1ccccc1)NC(=O)[C@H](CCC(N)=O)NC(=O)[C@H](CCC(N)=O)NC(=O)[C@@H]1CCCN1C(=O)[C@H](CCCCN)NC(=O)[C@@H]1CCCN1C(=O)[C@@H](N)CCCNC(=N)N)C(N)=O [D-HBPA^8 -SP]
IC50 (SPR in P388D1 cells [3]; tracer 25 pM [^125 I]BHSP, 2 h on ice, mean±standard deviation of ≥4 experiments, read-out: IC50 for displacement of [^125 I]BHSP): 1.5 ± 0.34 nM
IC50 [1]: 0.39 ± 0.04 nM
